Data taken from the supplement of paper PMC9663587.

How the values were obtained:
[1] = compound: Cc1cc(Nc2ncc(Cl)c(Nc3ccccc3S(=O)(=O)C(C)C)n2)c(OC(C)C)cc1C1CCNCC1 [Ceritinib/LDK378]
[2] = compound: CS(=O)(=O)N1CCN(Cc2cc3nc(-c4cccc5[nH]ncc45)nc(N4CCOCC4)c3s2)CC1 [Pictilisib/GDC0941]
[3] = compound: CCc1cnn2c(NCc3ccc[n+]([O-])c3)cc(N3CCCC[C@H]3CCO)nc12
[4] = compound: T1, CN(C)C(=O)c1cc2cnc(Nc3ccc(N4CCNCC4)cn3)nc2n1C1CCCC1 [LEE011/Ribociclib]
[5] = compound: Cc1nn(C)c(COc2ccc(N3CCN(S(=O)(=O)N(C)C)CC3)cc2)c1-c1cccc2c(CCCOc3cccc4ccccc34)c(C(=O)O)n(CCN3CCOCC3)c12
[6] = compound: COc1cccc2c1C(=O)c1c(O)c3c(c(O)c1C2=O)C[C@@](O)(C(=O)CO)C[C@@H]3O[C@H]1C[C@H](N)[C@H](O)[C@H](C)O1 [Doxorubicin]
[7] = compound: CCc1cnn2c(NCc3ccc[n+]([O-])c3)cc(N3CCCC[C@H]3CCO)nc12; assay: increase in dead-cell fraction, 72 h; higher = more death;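 note: breast cancer cell lines in 384-well plates, stained with Hoechst plus LIVE/DEAD far red dye and imaged, cells above an LDR intensity threshold counted dead, Hoechst-negative corpses included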
[8] = compound: T1, LEE011/Ribociclib; assay: as above
[9] = compound: CCN1CCN(Cc2ccc(Nc3ncc(F)c(-c4cc(F)c5nc(C)n(C(C)C)c5c4)n3)nc2)CC1; assay: as above
[10] = compound: C=CC(=O)Nc1ccc(C(=O)Nc2[nH]nc3c2CN(C(=O)N[C@H](CN(C)C)c2ccccc2)C3(C)C)cc1 [YKL-5-124]; assay: as above
[11] = compound: CN(C)C/C=C/C(=O)Nc1ccc(C(=O)Nc2cccc(Nc3ncc(Cl)c(-c4c[nH]c5ccccc45)n3)c2)cc1 [THZ1]; assay: as above
[12] = compound: CN(C)C/C=C/C(=O)Nc1ccc(C(=O)N2CCC[C@@H](Nc3ncc(Cl)c(-c4c[nH]c5ccccc45)n3)C2)cc1 [THZ531]; assay: as above
[13] = compound: CN1CC[C@H](c2c(O)cc(O)c3c(=O)cc(-c4ccccc4Cl)oc23)[C@H](O)C1 [Flavopiridol]; assay: as above
[14] = compound: CC(=O)c1c(C)c2cnc(Nc3ccc(N4CCN(CCOCCOCCOCCNC(=O)COc5cccc6c5C(=O)N(C5CCC(=O)NC5=O)C6=O)CC4)cn3)nc2n(C2CCCC2)c1=O [BSJ-03-123]; assay: as above
[15] = compound: CC(=O)c1c(C)c2cnc(Nc3ccc(N4CCNCC4)cn3)nc2n(C2CCCC2)c1=O; assay: as above
[16] = compound: CCOc1cc2ncc(C#N)c(Nc3ccc(OCc4ccccn4)c(Cl)c3)c2cc1NC(=O)/C=C/CN(C)C [Neratinib/HKI272]; assay: as above
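Throughout, for GR50, 72 h: breast cancer and non-malignant breast epithelial cell lines, Deep Dye Drop or Dye Drop imaging, nine half-log doses, GR normalized to time-zero plates and DMSO-only controls.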

For SUM229PE, the “GR50, 72 h” value [1] was 1.68 µM, the “GR50, 72 h” value [2] was 3.92 µM and the “GR50, 72 h” value [3] was 0.0141 µM. The “GR50, 72 h” value [4] was > 10 µM, the “GR50, 72 h” value [5] was > 10 µM and the “GR50, 72 h” value [6] was 0.031 µM. The “increase in dead-cell fraction” value ([7]; 0.0001 µM) was -0.0001, the “increase in dead-cell fraction” value ([7]; 0.0003162 µM) was -0.0086 and the “increase in dead-cell fraction” value ([7]; 0.001 µM) was 0.0057. For the same cell line, the “increase in dead-cell fraction” value ([7]; 0.003162 µM) was -0.0015, the “increase in dead-cell fraction” value ([7]; 0.01 µM) was 0.0106 and the “increase in dead-cell fraction” value ([7]; 0.03162 µM) was 0.0583. The “increase in dead-cell fraction” value ([7]; 0.1 µM) was 0.0925, the “increase in dead-cell fraction” value ([7]; 0.3162 µM) was 0.0682 and the “increase in dead-cell fraction” value ([7]; 1 µM) was 0.0926. For the same cell line, the “increase in dead-cell fraction” value ([8]; 0.001 µM) was 0.0025, the “increase in dead-cell fraction” value ([8]; 0.003162 µM) was -0.003 and the “increase in dead-cell fraction” value ([8]; 0.01 µM) was 0.0012. The “increase in dead-cell fraction” value ([8]; 0.03162 µM) was 0.0068, the “increase in dead-cell fraction” value ([8]; 0.1 µM) was 0.0061 and the “increase in dead-cell fraction” value ([8]; 0.3162 µM) was 0.0005. The “increase in dead-cell fraction” value ([8]; 1 µM) was 0.0021, the “increase in dead-cell fraction” value ([8]; 3.162 µM) was 0.0223 and the “increase in dead-cell fraction” value ([8]; 10 µM) was 0.0109. For the same cell line, the “increase in dead-cell fraction” value ([9]; 0.001 µM) was -0.0006, the “increase in dead-cell fraction” value ([9]; 0.003162 µM) was 0.004 and the “increase in dead-cell fraction” value ([9]; 0.01 µM) was -0.0023. The “increase in dead-cell fraction” value ([9]; 0.03162 µM) was -0.0024, the “increase in dead-cell fraction” value ([9]; 0.1 µM) was 0.0008 and the “increase in dead-cell fraction” value ([9]; 0.3162 µM) was -0.006. For the same cell line, the “increase in dead-cell fraction” value ([9]; 1 µM) was 0.0054, the “increase in dead-cell fraction” value ([9]; 3.162 µM) was 0.0064 and the “increase in dead-cell fraction” value ([9]; 10 µM) was 0.0095. The “increase in dead-cell fraction” value ([10]; 0.001 µM) was 0.0368, the “increase in dead-cell fraction” value ([10]; 0.003162 µM) was 0.0432 and the “increase in dead-cell fraction” value ([10]; 0.01 µM) was 0.0321. The “increase in dead-cell fraction” value ([10]; 0.03162 µM) was 0.0316, the “increase in dead-cell fraction” value ([10]; 0.1 µM) was 0.0267 and the “increase in dead-cell fraction” value ([10]; 0.3162 µM) was 0.0384. The “increase in dead-cell fraction” value ([10]; 1 µM) was 0.0161, the “increase in dead-cell fraction” value ([10]; 3.162 µM) was 0.0213 and the “increase in dead-cell fraction” value ([10]; 10 µM) was 0.0246. For the same cell line, the “increase in dead-cell fraction” value ([11]; 0.0001 µM) was 0.0012, the “increase in dead-cell fraction” value ([11]; 0.0003162 µM) was 0.0126 and the “increase in dead-cell fraction” value ([11]; 0.001 µM) was 0.0025. For the same cell line, the “increase in dead-cell fraction” value ([11]; 0.003162 µM) was 0.0048, the “increase in dead-cell fraction” value ([11]; 0.01 µM) was 0.0291 and the “increase in dead-cell fraction” value ([11]; 0.03162 µM) was 0.0152. The “increase in dead-cell fraction” value ([11]; 0.1 µM) was 0.0835, the “increase in dead-cell fraction” value ([11]; 0.3162 µM) was 0.124 and the “increase in dead-cell fraction” value ([11]; 1 µM) was 0.127. For the same cell line, the “increase in dead-cell fraction” value ([12]; 0.0001 µM) was 0.0065, the “increase in dead-cell fraction” value ([12]; 0.0003162 µM) was 0.0019 and the “increase in dead-cell fraction” value ([12]; 0.001 µM) was -0.0006. The “increase in dead-cell fraction” value ([12]; 0.003162 µM) was 0.0039, the “increase in dead-cell fraction” value ([12]; 0.01 µM) was -0.0022 and the “increase in dead-cell fraction” value ([12]; 0.03162 µM) was -0.005. For the same cell line, the “increase in dead-cell fraction” value ([12]; 0.1 µM) was -0.0018, the “increase in dead-cell fraction” value ([12]; 0.3162 µM) was 0.0175 and the “increase in dead-cell fraction” value ([12]; 1 µM) was 0.0884. For the same cell line, the “increase in dead-cell fraction” value ([13]; 0.0001 µM) was -0.0011, the “increase in dead-cell fraction” value ([13]; 0.0003162 µM) was -0.0025 and the “increase in dead-cell fraction” value ([13]; 0.001 µM) was 0.0061. The “increase in dead-cell fraction” value ([13]; 0.003162 µM) was 0.0065, the “increase in dead-cell fraction” value ([13]; 0.01 µM) was -0.0032 and the “increase in dead-cell fraction” value ([13]; 0.03162 µM) was -0.003. For the same cell line, the “increase in dead-cell fraction” value ([13]; 0.1 µM) was 0.0189, the “increase in dead-cell fraction” value ([13]; 0.3162 µM) was 0.0897 and the “increase in dead-cell fraction” value ([13]; 1 µM) was 0.0752. For the same cell line, the “increase in dead-cell fraction” value ([14]; 0.001 µM) was 0.0053, the “increase in dead-cell fraction” value ([14]; 0.003162 µM) was 0.0041 and the “increase in dead-cell fraction” value ([14]; 0.01 µM) was -0.0026. For the same cell line, the “increase in dead-cell fraction” value ([14]; 0.03162 µM) was -0.0037, the “increase in dead-cell fraction” value ([14]; 0.1 µM) was 0.0091 and the “increase in dead-cell fraction” value ([14]; 0.3162 µM) was 0.0164. The “increase in dead-cell fraction” value ([14]; 1 µM) was 0.007, the “increase in dead-cell fraction” value ([14]; 3.162 µM) was 0.0152 and the “increase in dead-cell fraction” value ([14]; 10 µM) was 0.0241. The “increase in dead-cell fraction” value ([15]; 0.0003162 µM) was -0.0072, the “increase in dead-cell fraction” value ([15]; 0.001 µM) was 0.0057 and the “increase in dead-cell fraction” value ([15]; 0.003162 µM) was -0.0076. The “increase in dead-cell fraction” value ([15]; 0.01 µM) was -0.0059, the “increase in dead-cell fraction” value ([15]; 0.03162 µM) was -0.0018 and the “increase in dead-cell fraction” value ([15]; 0.1 µM) was -0.0045. For the same cell line, the “increase in dead-cell fraction” value ([15]; 0.3162 µM) was -0.0032, the “increase in dead-cell fraction” value ([15]; 1 µM) was -0.0082 and the “increase in dead-cell fraction” value ([15]; 3.162 µM) was 0.009. For the same cell line, the “increase in dead-cell fraction” value ([16]; 0.0003162 µM) was 0.0008, the “increase in dead-cell fraction” value ([16]; 0.001 µM) was 0.0005 and the “increase in dead-cell fraction” value ([16]; 0.003162 µM) was -0.0005. The “increase in dead-cell fraction” value ([16]; 0.01 µM) was 0.0001, the “increase in dead-cell fraction” value ([16]; 0.03162 µM) was 0.0043 and the “increase in dead-cell fraction” value ([16]; 0.1 µM) was 0.0062. For the same cell line, the “increase in dead-cell fraction” value ([16]; 0.3162 µM) was 0.0046, the “increase in dead-cell fraction” value ([16]; 1 µM) was 0.0111 and the “increase in dead-cell fraction” value ([16]; 3.162 µM) was 0.0132.
